# Test results as given in the supplement of paper PMC10307832.
# Key:
# Experiment in all cases: relative viability (nuclei count vs DMSO), 5 days (fraction); higher = more cells survive
# ABC-1 = tested on: ABC-1
# Method in brief: (§1)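 Cells from lung cancer lines were seeded into 1536-well plates and, one day later, dosed by pin tool. Treatments were either a single drug or a fixed dose of an anchor drug with five library-drug doses (not always all listed) in √10 steps. After 5 days, nuclei were stained in a one-step fixation (final 0.05% Triton X-100, 1% formaldehyde, 1 ug/ml Hoechst) and counted on 4× images, and relative viability is the treated-to-vehicle nuclei ratio, as the median of duplicate plates.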
# COR-L23 = tested on: COR-L23
# Method in brief: as §1
# ChaGo-K-1 = tested on: ChaGo-K-1
# Method in brief: as §1
# NCI-H1437 = tested on: NCI-H1437
# Method in brief: as §1
# NCI-H1623 = tested on: NCI-H1623
# Method in brief: as §1
# NCI-H1648 = tested on: NCI-H1648
# Method in brief: as §1
# NCI-H1651 = tested on: NCI-H1651
# Method in brief: as §1
# SK-MES-1 = tested on: SK-MES-1
# Method in brief: as §1
# SW 1573 = tested on: SW 1573
# Method in brief: as §1
# A549 = tested on: A549
# Method in brief: as §1
# Calu-6 = tested on: Calu-6
# Method in brief: as §1
# EBC-1 = tested on: EBC-1
# Method in brief: as §1
# IA-LM = tested on: IA-LM
# Method in brief: as §1
# NCI-H1299 = tested on: NCI-H1299
# Method in brief: as §1
# NCI-H1703 = tested on: NCI-H1703
# Method in brief: as §1
compound,measurement,setting,value
CC(=O)O[C@@]12CO[C@@H]1C[C@H](O)[C@@]1(C)C(=O)[C@H](O)C3=C(C)[C@@H](OC(=O)[C@H](O)[C@@H](NC(=O)OC(C)(C)C)c4ccccc4)C[C@@](O)([C@@H](OC(=O)c4ccccc4)[C@H]21)C3(C)C [Docetaxel] + COc1cccc2cc(-c3nc([C@H]4CC[C@H](C(=O)O)CC4)n4ncnc(N)c34)[nH]c12 [OSI-027] (partner 0.5 µM),relative viability,ABC-1; first compound 0.0002 µM,0.443
same,relative viability,ABC-1; first compound 0.000632 µM,0.562
same,relative viability,ABC-1; first compound 0.002 µM,0.289
same,relative viability,ABC-1; first compound 0.006325 µM,0.178
same,relative viability,ABC-1; first compound 0.02 µM,0.186
same,relative viability,COR-L23; first compound 0.0002 µM,0.715
same,relative viability,COR-L23; first compound 0.000632 µM,0.689
same,relative viability,COR-L23; first compound 0.002 µM,0.444
same,relative viability,COR-L23; first compound 0.006325 µM,0.147
same,relative viability,COR-L23; first compound 0.02 µM,0.116
same,relative viability,ChaGo-K-1; first compound 0.0002 µM,0.554
same,relative viability,ChaGo-K-1; first compound 0.000632 µM,0.459
same,relative viability,ChaGo-K-1; first compound 0.002 µM,0.301
same,relative viability,ChaGo-K-1; first compound 0.006325 µM,0.23
same,relative viability,ChaGo-K-1; first compound 0.02 µM,0.129
same,relative viability,NCI-H1437; first compound 0.0002 µM,0.767
same,relative viability,NCI-H1437; first compound 0.000632 µM,0.861
same,relative viability,NCI-H1437; first compound 0.002 µM,0.311
same,relative viability,NCI-H1437; first compound 0.006325 µM,0.162
same,relative viability,NCI-H1437; first compound 0.02 µM,0.114
same,relative viability,NCI-H1623; first compound 0.0002 µM,0.391
same,relative viability,NCI-H1623; first compound 0.000632 µM,0.438
same,relative viability,NCI-H1623; first compound 0.002 µM,0.339
same,relative viability,NCI-H1623; first compound 0.006325 µM,0.335
same,relative viability,NCI-H1623; first compound 0.02 µM,0.298
same,relative viability,NCI-H1648; first compound 0.0002 µM,0.28
same,relative viability,NCI-H1648; first compound 0.000632 µM,0.267
same,relative viability,NCI-H1648; first compound 0.002 µM,0.232
same,relative viability,NCI-H1648; first compound 0.006325 µM,0.218
same,relative viability,NCI-H1648; first compound 0.02 µM,0.248
same,relative viability,NCI-H1651; first compound 0.0002 µM,0.627
same,relative viability,NCI-H1651; first compound 0.000632 µM,0.783
same,relative viability,NCI-H1651; first compound 0.002 µM,0.38
same,relative viability,NCI-H1651; first compound 0.006325 µM,0.14
same,relative viability,NCI-H1651; first compound 0.02 µM,0.0753
same,relative viability,SK-MES-1; first compound 0.0002 µM,0.621
same,relative viability,SK-MES-1; first compound 0.000632 µM,0.506
same,relative viability,SK-MES-1; first compound 0.002 µM,0.276
same,relative viability,SK-MES-1; first compound 0.006325 µM,0.22
same,relative viability,SK-MES-1; first compound 0.02 µM,0.112
same,relative viability,SW 1573; first compound 0.0002 µM,0.677
same,relative viability,SW 1573; first compound 0.000632 µM,0.326
same,relative viability,SW 1573; first compound 0.002 µM,0.199
same,relative viability,SW 1573; first compound 0.02 µM,0.124
Nc1ccn([C@@H]2O[C@H](CO)[C@@H](O)[C@@H]2O)c(=O)n1 [Cytarabine] + COc1cc2c(Oc3ccc(NC(=O)C4(C(=O)Nc5ccc(F)cc5)CC4)cc3F)ccnc2cc1OCCCN1CCOCC1 [Foretinib] (partner 0.25 µM),relative viability,A549; first compound 0.005 µM,0.622
same,relative viability,A549; first compound 0.01581 µM,0.629
same,relative viability,A549; first compound 0.05 µM,0.336
same,relative viability,A549; first compound 0.1581 µM,0.071
same,relative viability,A549; first compound 0.5 µM,0.0358
same,relative viability,ABC-1; first compound 0.005 µM,0.997
same,relative viability,ABC-1; first compound 0.01581 µM,1.14
same,relative viability,ABC-1; first compound 0.05 µM,1.06
same,relative viability,ABC-1; first compound 0.1581 µM,1.01
same,relative viability,ABC-1; first compound 0.5 µM,0.63
same,relative viability,COR-L23; first compound 0.005 µM,0.958
same,relative viability,COR-L23; first compound 0.01581 µM,0.966
same,relative viability,COR-L23; first compound 0.05 µM,0.612
same,relative viability,COR-L23; first compound 0.1581 µM,0.206
same,relative viability,COR-L23; first compound 0.5 µM,0.137
same,relative viability,Calu-6; first compound 0.005 µM,0.796
same,relative viability,Calu-6; first compound 0.01581 µM,0.702
same,relative viability,Calu-6; first compound 0.05 µM,0.707
same,relative viability,Calu-6; first compound 0.1581 µM,0.405
same,relative viability,Calu-6; first compound 0.5 µM,0.233
same,relative viability,ChaGo-K-1; first compound 0.005 µM,0.734
same,relative viability,ChaGo-K-1; first compound 0.01581 µM,0.59
same,relative viability,ChaGo-K-1; first compound 0.05 µM,0.391
same,relative viability,ChaGo-K-1; first compound 0.1581 µM,0.259
same,relative viability,ChaGo-K-1; first compound 0.5 µM,0.251
same,relative viability,EBC-1; first compound 0.005 µM,0.0948
same,relative viability,EBC-1; first compound 0.01581 µM,0.0902
same,relative viability,EBC-1; first compound 0.05 µM,0.0964
same,relative viability,EBC-1; first compound 0.1581 µM,0.0746
same,relative viability,EBC-1; first compound 0.5 µM,0.076
same,relative viability,IA-LM; first compound 0.005 µM,0.802
same,relative viability,IA-LM; first compound 0.01581 µM,1.05
same,relative viability,IA-LM; first compound 0.05 µM,0.916
same,relative viability,IA-LM; first compound 0.1581 µM,0.592
same,relative viability,IA-LM; first compound 0.5 µM,0.246
same,relative viability,NCI-H1299; first compound 0.005 µM,1.15
same,relative viability,NCI-H1299; first compound 0.01581 µM,1.13
same,relative viability,NCI-H1299; first compound 0.05 µM,1.05
same,relative viability,NCI-H1299; first compound 0.1581 µM,1.12
same,relative viability,NCI-H1299; first compound 0.5 µM,1.16
same,relative viability,NCI-H1437; first compound 0.005 µM,0.973
same,relative viability,NCI-H1437; first compound 0.01581 µM,0.922
same,relative viability,NCI-H1437; first compound 0.05 µM,0.626
same,relative viability,NCI-H1437; first compound 0.1581 µM,0.287
same,relative viability,NCI-H1437; first compound 0.5 µM,0.251
same,relative viability,NCI-H1623; first compound 0.005 µM,0.695
same,relative viability,NCI-H1623; first compound 0.01581 µM,0.545
same,relative viability,NCI-H1623; first compound 0.05 µM,0.375
same,relative viability,NCI-H1623; first compound 0.1581 µM,0.463
same,relative viability,NCI-H1623; first compound 0.5 µM,0.577
same,relative viability,NCI-H1651; first compound 0.005 µM,0.769
same,relative viability,NCI-H1651; first compound 0.01581 µM,0.808
same,relative viability,NCI-H1651; first compound 0.05 µM,0.723
same,relative viability,NCI-H1651; first compound 0.1581 µM,0.583
same,relative viability,NCI-H1651; first compound 0.5 µM,0.372
same,relative viability,NCI-H1703; first compound 0.005 µM,0.251
same,relative viability,NCI-H1703; first compound 0.01581 µM,0.273
same,relative viability,NCI-H1703; first compound 0.05 µM,0.253
same,relative viability,NCI-H1703; first compound 0.1581 µM,0.195
same,relative viability,NCI-H1703; first compound 0.5 µM,0.158
same,relative viability,SK-MES-1; first compound 0.005 µM,0.763
same,relative viability,SK-MES-1; first compound 0.01581 µM,0.704
same,relative viability,SK-MES-1; first compound 0.05 µM,0.457
same,relative viability,SK-MES-1; first compound 0.1581 µM,0.336
same,relative viability,SK-MES-1; first compound 0.5 µM,0.304
same,relative viability,SW 1573; first compound 0.005 µM,0.929
same,relative viability,SW 1573; first compound 0.01581 µM,0.688
same,relative viability,SW 1573; first compound 0.05 µM,0.881
same,relative viability,SW 1573; first compound 0.1581 µM,0.464
same,relative viability,SW 1573; first compound 0.5 µM,0.202
